pIC50: −log10 of the molar value. Like-named read-outs stand apart in the source and are kept apart here.
Assays:
[1] = system: SU-DHL-6, a DLBCL line harboring a Y641N mutation in EZH2; assay: DLBCL cell growth (CellTiter-Glo) with BCL-2 inhibitor after Compound A pre-treatment, SU-DHL-6; format: cell-based; conditions: for pIC50: Homo sapiens, read-out: gIC50
Description: (§1) Plates were incubated for 6 days at 37° C. in 5% CO2. Cells were then lysed with CellTiter-Glo (CTG) (Promega) according to the manufacturer's protocol and chemiluminescent signal was detected with a TECAN Safire2 microplate reader. CTG estimates cell number through detection of cellular ATP levels. In addition, an untreated plate of cells was harvested at the time of compound addition (T0) to quantify the starting number of cells. CTG values were expressed as a percent of the T0 value and plotted against compound concentration.

[2] = system: KARPAS-422, a DLBCL line harboring a Y641N mutation in EZH2; assay: DLBCL cell growth (CellTiter-Glo) with BCL-2 inhibitor after Compound A pre-treatment, KARPAS-422; conditions: for pIC50: read-out: gIC50
Description: as §1

[3] = system: Farage, a DLBCL line harboring WT EZH2; assay: DLBCL cell growth (CellTiter-Glo) with BCL-2 inhibitor after Compound A pre-treatment, Farage; format: cell-based; conditions: for pIC50: read-out: gIC50
Description: as §1

[4] = system: WSU-DLCL-2, a DLBCL line harboring a Y641F mutation in EZH2; assay: DLBCL cell growth (CellTiter-Glo) with BCL-2 inhibitor after Compound A pre-treatment, WSU-DLCL2; format: cell-based; conditions: Homo sapiens, read-out: gIC50
Description: as §1

[5] = 144 h, SU-DHL-6, BCL2 inhibitor alone (no Compound A), 6 days
[6] = SU-DHL-6, Compound A 250 nM 72 h pre-treatment then 6 day co-treatment
[7] = KARPAS-422, BCL2 inhibitor alone (no Compound A), 6 days
[8] = KARPAS-422, Compound A 100 nM 72 h pre-treatment then 6 day co-treatment
[9] = KARPAS-422, Compound A 500 nM 72 h pre-treatment then 6 day co-treatment
[10] = 144 h, BCL2 inhibitor alone (no Compound A), 6 days
[11] = Compound A 1 μM 72 h pre-treatment then 6 day co-treatment
[12] = WSUDLCL2, 144 h, WSU-DLCL2, BCL2 inhibitor alone (no Compound A), 6 days
[13] = WSUDLCL2, WSU-DLCL2, Compound A 250 nM 72 h pre-treatment then 6 day co-treatment

Row | pIC50 [1, 5] | pIC50 [1, 6] | pIC50 [2, 7] | pIC50 [2, 8] | pIC50 [2, 9] | Structure (SMILES) | Fold shift in potency over ABT-737 alone ([1]; SU-DHL-6, Compound A 250 nM) | Fold shift in potency over ABT-737 alone ([2]; KARPAS-422, Compound A 100 nM) | Fold shift in potency over ABT-737 alone ([2]; KARPAS-422, Compound A 500 nM) | pIC50 [3, 10] | Fold shift in potency over ABT-737 alone ([3]; Compound A 1 uM) | pIC50 [3, 11] | pIC50 [4, 12] | pIC50 [4, 13] | Fold shift in potency over ABT-263 alone ([1]; SU-DHL-6, Compound A 250 nM) | Fold shift in potency over ABT-263 alone ([2]; KARPAS-422, Compound A 100 nM) | Fold shift in potency over ABT-263 alone ([2]; KARPAS-422, Compound A 500 nM) | Fold shift in potency over ABT-263 alone ([3]; Compound A 1 μM)
1 | 5.87 | 6.96 | 6.48 | 7.11 | 8.96 | CN(C)CC[C@H](CSc1ccccc1)Nc1ccc(S(=O)(=O)NC(=O)c2ccc(N3CCN(Cc4ccccc4-c4ccc(Cl)cc4)CC3)cc2)cc1[N+](=O)[O-] [ABT-737] | 12 | 4.3 | 304 | 5.33 | 19 | 6.61 | 5.85 | 6.01 | – | – | – | –
2 | 6.29 | 7.77 | 6.77 | 7.22 | 9.40 | CC1(C)CCC(c2ccc(Cl)cc2)=C(CN2CCN(c3ccc(C(=O)NS(=O)(=O)c4ccc(N[C@H](CCN5CCOCC5)CSc5ccccc5)c(S(=O)(=O)C(F)(F)F)c4)cc3)CC2)C1 [ABT-263] | – | – | – | 6.34 | – | 7.96 | 6.33 | 5.94 | 31 | 2.8 | 423 | 43

Reference: patent US20150313906A1, “COMBINATION” (GLAXOSMITHKLINE LLC, priority 2012, published 2015)
